The record followed here is patent US9795551B2, “Tetrapeptides and a method of use as an antioxidant” (L'OREAL, priority 2014, dated 2017).

Assay [1] is described as follows: ORAC oxygen radical absorbance capacity (USTM 192), in tubo. How it is done: (§1) In the screening standard testing for oxygen radical absorbance capacity (ORAC) and hydroxyl radical absorbance capacity (HORAC) were conducted with the test polypeptides. Testing was conducted according to USTM 190 (HORAC) and USTM 192 (ORAC).
(§2) The peptides were tested in tubo for their antioxidant properties and tested against reference/known antioxidants. The evaluation of the antioxidant properties were conducted by determination of the ORAC (USTM 192) and HORAC (USTM 190) test methods. The results are listed in Table I for the peptides of the invention and for the conventionally known antioxidants vitamin C and Carnosine.

A short description of assay [2]: HORAC hydroxyl radical absorbance capacity (USTM 190), in tubo. As to the method:
as §1, §2

For `NCCC(=O)N[C@@H](Cc1c[nH]cn1)C(=O)O` [Carnosine, β-alanyl-histidine, reference compound], the ORAC/peroxyl in assay [1] is 354 μmol GAE/g. Moreover, the HORAC/hydroxyl in assay [2] is given as 2099 μmol GAE/g.

`O=C1O[C@H]([C@@H](O)CO)C(O)=C1O` [Vitamin C, reference compound]: in assay [1], the ORAC/peroxyl is 4456 μmol GAE/g. Further, the HORAC/hydroxyl in assay [2] stood at 0 μmol GAE/g.

Compound Ac-wRyR-NH2 [RED27] registered an ORAC/peroxyl in assay [1] of 5342 μmol GAE/g. Moreover, the HORAC/hydroxyl in assay [2] worked out at 735 μmol GAE/g.

For the compound RwRyR-NH2 [RED26], the ORAC/peroxyl in assay [1] is listed as 4461 μmol GAE/g. In addition, in assay [2], the HORAC/hydroxyl entry is “No capacity”.

As for RyR-NH2 [RED32], in assay [1], the ORAC/peroxyl came out at 3385 μmol GAE/g. The HORAC/hydroxyl in assay [2] was found to be 230 μmol GAE/g.

Compound WKYK-NH2 [RED25] returned an ORAC/peroxyl in assay [1] of 4168 μmol GAE/g. The HORAC/hydroxyl in assay [2] is 2476 μmol GAE/g.

As to WRYR [RED23], the ORAC/peroxyl in assay [1] is on record as 4091 μmol GAE/g. Also, in assay [2], the HORAC/hydroxyl is 2089 μmol GAE/g.

For WRYR-NH2 [RED6], the ORAC/peroxyl in assay [1] amounted to 4488 μmol GAE/g. This compound also came in with an HORAC/hydroxyl in assay [2] of 1548 μmol GAE/g.

Regarding WRYr-NH2 [RED19], the ORAC/peroxyl in assay [1] came out at 4350 μmol GAE/g. Moreover, the HORAC/hydroxyl in assay [2] is listed as 1457 μmol GAE/g.

As for WRyR-NH2 [RED21], the ORAC/peroxyl in assay [1] was 4816 μmol GAE/g. Further, the HORAC/hydroxyl in assay [2] came to 2472 μmol GAE/g.

In assay [1], WrYR-NH2 [RED20] had an ORAC/peroxyl of 4448 μmol GAE/g. Also, the HORAC/hydroxyl in assay [2] is on record as 1666 μmol GAE/g.

In turn, WrYr-NH2 [RED18] displayed an ORAC/peroxyl in assay [1] of 4758 μmol GAE/g. Moreover, the HORAC/hydroxyl in assay [2] stood at 2982 μmol GAE/g.

wRYR-NH2 [RED24] displayed an ORAC/peroxyl in assay [1] of 4077 μmol GAE/g. In addition, the HORAC/hydroxyl in assay [2] is 2225 μmol GAE/g.

Turning to wRwR-NH2 [RED31], in assay [1], the ORAC/peroxyl came to 4652 μmol GAE/g. The HORAC/hydroxyl in assay [2] was 1189 μmol GAE/g.

wRyR-NH2 [RED22]: in assay [1], the ORAC/peroxyl was 5383 μmol GAE/g. The compound further returned an HORAC/hydroxyl in assay [2] of 1686 μmol GAE/g.

wRyRw-NH2 [RED29]: the ORAC/peroxyl in assay [1] is 5512 μmol GAE/g. Moreover, the HORAC/hydroxyl entry in assay [2] is “No capacity”.

Regarding wRyRy-NH2 [RED28], the ORAC/peroxyl in assay [1] is reported as 5216 μmol GAE/g. For the same compound, the HORAC/hydroxyl result in assay [2] is recorded as “No capacity”.
